Reference: PubChem BioAssay AID1117319 (Southern Research Institute, 2015)
Results filed as inconclusive are left out.

Molecular target: Virion infectivity factor (Human immunodeficiency virus type 1 group M subtype B (isolate BH10)) + Virion infectivity factor (Human immunodeficiency virus type 1 group M subtype B (isolate BRU/LAI)) + Virion infectivity factor (Human immunodeficiency virus type 1 group M subtype B (isolate PCV12)) + Virion infectivity factor (Human immunodeficiency virus type 1 group M subtype B (isolate HXB2)) + DNA dC->dU-editing enzyme APOBEC-3G (Homo sapiens) (UniProt P69720+P69721+P69722+P69723+Q9HC16)
Assay: HIV-1 Vif–A3G interaction blockers – biochemical, TR-FRET, GST-Vif 1-94, biotin-A3G peptide, dose response retest, primary screen (AID 1117319);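 further: Vif residues 1-94 fused to GST binding biotinylated APOBEC3G peptide 110-148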
Conditions: TR-FRET GST-Vif / biotin-A3G peptide binding

SMILES	IC50
COc1ccc(S(=O)(=O)c2c(N)n(Cc3ccco3)c3nc4ccccc4nc23)cc1	3.47 µM
CC(=O)C1=C(C)NC(C)=C(C(C)=O)C1c1cccs1	23.5 µM
C(=C\c1ccco1)/c1ccc2ccccc2n1	5.09 µM
O=C(CN1C(=O)NC2(CCCCCCC2)C1=O)NCc1ccc2c(c1)OCO2	99.2 µM
Cc1cc(/C=N/Nc2ccc([N+](=O)[O-])cn2)c(C)n1-c1ccc(C(=O)O)cc1	3.25 µM
Cc1cc2c(c(=O)o1)C(c1ccc([N+](=O)[O-])o1)C(C#N)=C(N)O2 (configuration not stated)	2.53 µM
CCN(C(=O)c1coc(=O)c(Br)c1)c1ccc2c(c1)OCO2	1.06 µM
CCOc1ccccc1C(=O)NCC(=O)OCC(=O)NCCc1ccc(S(N)(=O)=O)cc1	75.8 µM
O=C1CC(Nc2ccc(N3CCOCC3)cc2)C(=O)N1C1CCCCC1 (configuration not stated)	2.74 µM
CC(=O)N(\C=C/C=C/C=C1\Sc2ccccc2C1=O)c1ccccc1	5.47 µM
CC(C)NC(=O)c1cc(-c2ccco2)nn1-c1ccc(Cl)cc1	13.5 µM
COc1ccc(/C=N/NC(=O)c2cc(O)c(O)c(O)c2)cc1Cn1cc([N+](=O)[O-])cn1	1.07 µM
N#Cc1c(N)sc(=S)c2c1CCCCC2	4.22 µM
O=C(NN(C(=O)c1ccccc1)c1ccccc1)c1ccccc1	70.7 µM
O=C(O)/C=C/C(=O)Nc1cccnc1	62.9 µM
Cc1ccc(NC(=O)CCCCCC2NC(=O)NC2C)cc1 (configuration not stated)	0.71 µM
CCCCOc1ccc(C(=O)NCC(=O)NCC(=O)OCC)cc1	76.9 µM
O=C(Nc1ccc2nc(-c3ccco3)c(-c3ccco3)nc2c1)N1CCCCCC1	0.58 µM
CC1CCN(Cc2c(O)ccc3c2O/C(=C\c2ccco2)C3=O)CC1	3 µM
Oc1ccc(/C=N/N2CCCCC2)c(O)c1O	19.2 µM
COc1ccc(-c2nc3oc4cc(OC)ccc4c(=O)c3c(=O)n2Cc2ccco2)cc1	98.7 µM
Cn1cnnc1SC/C(O)=C(\C#N)c1nc2ccccc2[nH]1	19.7 µM
Cc1ccc(/C=C/C2=Cc3c(sc(NC(=O)CSc4n[nH]c(N)n4)c3C#N)C(C)(C)C2)o1	0.8 µM

SMILES	IC50
Cc1c(C(=O)N2CCN(c3ccc(F)cc3)CC2)sc2nc(-c3ccccc3)cn12	48.7 µM
CCN(CC)c1ccc(/C=N/n2c(C)cc(C)cc2=O)cc1	1.65 µM
CC1=C(SCc2ccccc2)C(=O)c2ccccc2C1=O	58.1 µM
COC(=O)CCC(=O)OC1(C)C(=O)C2=CN(CCCOC(C)C)C(c3ccc(OC)cc3)=CC2=C(Br)C1=O (configuration not stated)	11.5 µM
O=C(O)c1ccc(Sc2nnnn2-c2ccccc2)c([N+](=O)[O-])c1	89.9 µM
CN(CCO)c1cc(Sc2nc3ccccc3s2)c2nonc2c1[N+](=O)[O-]	42.6 µM
CC(C)Nc1ccc(Nc2ccccc2)cc1	9.18 µM
NS(=O)(=O)c1ccc(N=Nc2ccc(=O)[nH]c2O)cc1	5.22 µM
O=C(Nc1nc(-c2ccco2)c(-c2ccco2)s1)c1ccco1	32.2 µM
CCCN1C(=O)S/C(=C\c2ccc(N3CCOCC3)cc2C)C1=O	23.4 µM
O=C(N/N=C/C(Br)=C/c1ccccc1)c1cc(-c2ccco2)[nH]n1	5.12 µM
CCc1ccc(CC)c(S(=O)(=O)Nc2ccc(C(=O)O)c(O)c2)c1	35.3 µM
CC(=C/C(=O)O)/C=C/c1ccc(Cl)o1	27.4 µM
COC(=O)CCC(=O)OC1(C)C(=O)C=C2C=C3CCCN3C=C2C1=O (configuration not stated)	2.23 µM
CCOC(=O)C1CCN(C(=O)COc2ccc(S(=O)(=O)NC(C)C)cc2)CC1	27.8 µM
C=CCn1c(COc2ccc(F)cc2)nnc1SCC(=O)NC(=O)NCc1ccco1	40.7 µM
Cc1cc(C(=O)Nc2sc3c(c2C#N)CCCCC3)cs1	95.9 µM
O=C(O)Cc1ccc(N=Nc2c(O)c(C(=O)O)cc3ccccc23)cc1	10.5 µM
COC(=O)c1ccc(=O)c2nc3/c(=C/O)c(O)cc(=O)c3[nH]c12	0.35 µM
COc1cc(C2C(C#N)=C(N)N(c3cccnc3)C3=C2C(=O)CCC3)ccc1O (configuration not stated)	13.6 µM
CNCc1ccccc1Sc1ccc(O)c(O)c1	2.64 µM
O=C(COC(=O)/C=C/c1ccco1)Nc1ncc(C(F)(F)F)cc1Cl	12.7 µM
Cc1c(C)n(C(=O)CSc2nc3ccccc3[nH]2)c2ccccc12	39.7 µM

SMILES	IC50
CCC(=O)NNc1ncnc2ccccc12	16.4 µM
Cc1cc(C)c([N+](=O)[O-])cc1-c1ccc(/C=N/c2c(-c3ccco3)nc3ccccn23)o1	42.4 µM
COc1ccccc1NCCC(=O)OCC(=O)NCc1ccco1	13.9 µM
COc1cc(C2Nc3ccccc3C(=O)N2c2ccccc2)ccc1O (configuration not stated)	39.4 µM
Nc1cc(N)nc(SCc2cc([N+](=O)[O-])cc3c2OCOC3)n1	74.1 µM
COc1ccc(N2CCN(c3nc4ccccc4nc3NS(=O)(=O)c3ccccc3)CC2)cc1	66.6 µM
C/C(=C\C(=O)c1ccc(C)cc1)Nc1cccc(O)c1	53.3 µM
O=C(NCCCO)Nc1ccc2nc(-c3ccco3)c(-c3ccco3)nc2c1	0.26 µM
O=C1NC(=O)N(c2cccc(Cl)c2)C(=O)/C1=C\c1ccc(Sc2nc3ccccc3[nH]2)o1	10.1 µM
CCOC(=O)C1CCN(C(c2cccs2)c2sc3nc(C)nn3c2O)CC1 (configuration not stated)	55.7 µM
O=C(/C=C/c1ccco1)N(c1ccccn1)c1ccccn1	3.05 µM
CCOC(=O)C1CCCN(C(=O)c2cc(-c3ccco3)nc3ccccc23)C1 (configuration not stated)	2.64 µM
O=C(NCCS(=O)CCNC(=O)C(F)(F)F)C(F)(F)F	95 µM
CCc1ccccc1N(CC(=O)NCCSCc1ccco1)S(C)(=O)=O	78.4 µM
Cc1nc(C)c(C(=O)Nc2nc3c(C)cccc3s2)o1	32 µM
O=C(/C(=N/N=C/c1ccc(O)c(O)c1O)c1ccccc1)c1ccccc1	3.15 µM
CCN(CC)c1ccc(C(=C2C=CC(=[N+](CC)CC)C=C2)c2ccccc2)cc1	11.8 µM
Cc1ccc(NC(=O)c2cc(-c3ccc(C)o3)nc3ccccc23)nc1	33.6 µM
COc1cc2c(cc1OC)C(C)N(C(=O)c1cc3n(n1)C(C(F)(F)F)CC(c1ccco1)N3)CC2 (configuration not stated)	27.8 µM
COc1cc(C2C(C(=O)c3ccco3)=C(O)C(=O)N2c2cc(C)on2)cc(Br)c1O (configuration not stated)	26.5 µM
Cc1ccc(-c2cc(-c3ccc4c(c3)OCO4)c(C#N)c(N)n2)o1	7.11 µM
N#Cc1ccc(CSc2nnc(Cc3cccs3)n2Cc2ccco2)cc1	46.5 µM
O=C1c2sc3nc4n(c(=O)c3c2CCC1Br)CCCCC4 (configuration not stated)	0.54 µM

SMILES	IC50
O=C1C=C(N2CC2)c2ccccc2C1=O	11.3 µM
CN=c1scc(-c2ccco2)n1/N=C/c1ccc(O)c(O)c1	9.26 µM
O=C1CC(/C=C/c2ccco2)=Nc2ccccc2N1	1.69 µM
Cc1c(C(=O)N2CCN(c3ccccc3F)CC2)sc2nc(-c3ccccc3)cn12	93 µM
CCCC(=O)Nc1ccc(Br)cn1	65.1 µM
CCOC(=O)c1c(NC(=O)c2cccs2)sc(C)c1C	32.9 µM
CN(C)c1ccc(NC(=O)Cn2cc3c(n2)CCCC3)cc1	6.08 µM
N#CC(C(=O)NCc1ccco1)c1nc2ccccc2nc1N1CCOCC1 (configuration not stated)	51.7 µM
COCCn1nnnc1C(c1cc2cc(OC)c(OC)cc2[nH]c1=O)N1CCN(c2ccc(O)cc2)CC1 (configuration not stated)	4.8 µM
COc1cc(NC(=O)c2cc3nc(C)cc(C)n3n2)c(OC)cc1Cl	92.1 µM
CCOC(=O)C1CCCC12Nc1cccc3cccc(c13)N2 (configuration not stated)	3.74 µM
Cc1ccc(-c2nc3s/c(=C\c4ccco4)c(=O)n3n2)cc1	27.6 µM
O=c1oc(/C=C/c2ccco2)nc2sc3c(c12)CCC3	15.5 µM
CN1CCc2cccc3c2[C@H]1Cc1ccc(O)c(O)c1-3	0.89 µM
Cc1cc2c(N)cccc2nn1	< 0.195 µM
CCn1c2ccccc2c2cc(NC(=O)c3ccccc3[N+](=O)[O-])ccc21	14.7 µM
O=C(CSc1nnnn1-c1ccccc1)Nc1ncc2c(n1)CC(c1ccco1)CC2=O (configuration not stated)	12.6 µM
O=C1C(Cl)=C(Oc2ccccc2)C(=O)c2ccccc21	23.6 µM
CCN(CC(=O)Nc1c(F)cccc1F)C(=O)c1cccc(-n2cccc2)c1	20.9 µM
C[n+]1cccc2cccc([O-])c21	1.4 µM
O=[N+]([O-])c1c(NCCO)cc(Sc2nc3ccccc3s2)c2nonc12	34.9 µM
O=C(CCN1CCN(c2ccccc2)CC1)N/N=C/c1ccc(O)c(O)c1O	1.02 µM
COC(=O)Cn1c(CCC(=O)O)ccc1-c1ccccc1	12.5 µM

SMILES	IC50
N#C/C(=C/c1ccc(N2CCCCCC2)o1)c1cccc(F)c1	24.6 µM
COCCN=c1scc(-c2cccs2)n1/N=C/c1ccc(O)c(O)c1O	2.37 µM
COc1cccc(-c2nn3c(-c4ccccn4)nnc3s2)c1	81.3 µM
COc1ccc(NC(=S)NCCc2ccccc2OC)c(OC)c1	7.02 µM
Cc1ccc(C)c(NC(=O)CN(C)C(=O)c2cccc(-n3cccc3)c2)c1	15.4 µM
Oc1cc2c(cc1O)[C@H]1c3ccc(O)c(O)c3OC[C@@]1(O)C2	0.57 µM
COc1ccc2c(c1)CC1(CN2C)C(=O)NC(=O)N(c2ccc(C)cc2)C1=O (configuration not stated)	58.9 µM
c1ccc(CSc2nnc(-c3ccco3)c(-c3ccco3)n2)cc1	6.93 µM
Cc1cc(-c2csc(NC(=O)c3cc4ccccc4o3)n2)c(C)n1C	48.7 µM
O=C(N/N=C/c1ccc(O)c(O)c1O)/C(=C/c1ccc([N+](=O)[O-])cc1)NC(=O)c1ccccc1	0.87 µM
CC1(C)Cc2nc3sc4c(SCC(=O)NCc5ccco5)ncnc4c3cc2CO1	79.5 µM
O=C(NCCCO)c1ccc2nc(-c3ccco3)c(-c3ccco3)nc2c1	0.72 µM
c1ccc2c(c1)NCC1CCCN21 (configuration not stated)	38.1 µM
CCC1=NN2C(=N)/C(=C\c3ccc(SCc4ccco4)o3)C(=O)N=C2S1	10.4 µM
CCNc1ccc(Br)cc(C(=O)/C=C/c2ccc(Cl)cc2)c1=O	7.05 µM
Cc1cccc(N2C(=O)/C(=C/c3ccc(CN(CCC#N)S(C)(=O)=O)o3)C(=O)NC2=S)c1	22.9 µM
CCCSC1=N/C(=C\C=C\c2ccco2)C(=O)S1	3.79 µM
Oc1cccc(/C=N/NC(=S)NCCN2CCOCC2)c1O	12.4 µM
Cc1cc(-c2csc(NC(=O)c3ccc(C#N)cc3)n2)c(C)n1Cc1ccco1	3.35 µM
Cc1c(F)cccc1NC(=O)CCCCCC1NC(=O)NC1C (configuration not stated)	0.78 µM
